Data reported in patent US20260297081A1, “COMPOUNDS AND METHODS OF TREATING CANCERS” (Cullgen Inc., priority 2023, published 2026).

Tested on: MCF7 cells
Experiment: Anti-proliferation (viability) of MCF7 cells (Table 7, FIG. 2B)
Assay type: cell-based
Details: Homo sapiens, MCF7, MCF7 cells, 3-6 days, 10-point serial dilution; read-out: GI IC50 in MCF-7

| SMILES | IC50 [nM] |
| --- | --- |
| CNc1ccc(C(=O)Nc2cn(C)c(C3CCC3)n2)c(NC2CC3(CC(NC(=O)CN4CCN(c5ccc(Nc6ncc7c(C)c(C(C)=O)c(=O)n(C8CCCC8)c7n6)nc5)CC4)C3)C2)n1 (stereo not drawn) [CPD-310, 2-((6-(2-(4-(6-((6-acetyl-8-cyclopentyl-5-methyl-7-oxo-7,8-dihydropyrido[2,3-d]pyrimidin-2-yl)amino)pyridin-3-yl)piperazin-1-yl)acetamido)spiro[3.3]heptan-2-yl)amino)-N-(2-cyclobutyl-1-methyl-1H-imidazol-4-yl)-6-(methylamino)nicotinamide] | > 100 |
| CNc1ccc(C(=O)Nc2ccc(N(C)C)nn2)c(NC2CC(OC(=O)N3CCN(c4ccc(Nc5ncc6c(C)c(C(C)=O)c(=O)n(C7CCCC7)c6n5)nc4)CC3)C2)n1 (stereo not drawn) [CPD-311, 3-((3-((6-(dimethylamino)pyridazin-3-yl)carbamoyl)-6-(methylamino)pyridin-2-yl)amino)cyclobutyl 4-(6-((6-acetyl-8-cyclopentyl-5-methyl-7-oxo-7,8-dihydropyrido[2,3-d]pyrimidin-2-yl)amino)pyridin-3-yl)piperazine-1-carboxylate] | > 100 |
| CCn1nc(NC(=O)c2ccc(NC)nc2NC2CC3(CC(NC(=O)CN4CCN(c5ccc(Nc6ncc7c(C)c(C(C)=O)c(=O)n(C8CCCC8)c7n6)nc5)CC4)C3)C2)cc1C (stereo not drawn) [CPD-312, 2-((6-(2-(4-(6-((6-acetyl-8-cyclopentyl-5-methyl-7-oxo-7,8-dihydropyrido[2,3-d]pyrimidin-2-yl)amino)pyridin-3-yl)piperazin-1-yl)acetamido)spiro[3.3]heptan-2-yl)amino)-N-(1-ethyl-5-methyl-1H-pyrazol-3-yl)-6-(methylamino)nicotinamide] | > 100 |
| CC(=O)c1c(C)c2cnc(Nc3ccc(N4CCN(CCC(=O)N5CCC(Nc6nc(NC(C)C)ccc6C(=O)Nc6cn(C)c(C7CC7)n6)CC5)CC4)cn3)nc2n(C2CCCC2)c1=O [CPD-313, 2-((1-(3-(4-(6-((6-acetyl-8-cyclopentyl-5-methyl-7-oxo-7,8-dihydropyrido[2,3-d]pyrimidin-2-yl)amino)pyridin-3-yl)piperazin-1-yl)propanoyl)piperidin-4-yl)amino)-N-(2-cyclopropyl-1-methyl-1H-imidazol-4-yl)-6-(isopropylamino)nicotinamide] | > 100 |
| CCCn1nc(NC(=O)c2ccc(NC)nc2NC2CC3(CC(NC(=O)CN4CCN(c5ccc(Nc6ncc7c(C)c(C(C)=O)c(=O)n(C8CCCC8)c7n6)nc5)CC4)C3)C2)cc1C (stereo not drawn) [CPD-314, 2-((6-(2-(4-(6-((6-acetyl-8-cyclopentyl-5-methyl-7-oxo-7,8-dihydropyrido[2,3-d]pyrimidin-2-yl)amino)pyridin-3-yl)piperazin-1-yl)acetamido)spiro[3.3]heptan-2-yl)amino)-N-(5-methyl-1-propyl-1H-pyrazol-3-yl)-6-(methylamino)nicotinamide] | > 100 |
| CNc1ccc(C(=O)Nc2cc(C)n(C3CC3)n2)c(NC2CC3(CC(NC(=O)CN4CCN(c5ccc(Nc6ncc7c(C)c(C(C)=O)c(=O)n(C8CCCC8)c7n6)nc5)CC4)C3)C2)n1 (stereo not drawn) [CPD-315, 2-((6-(2-(4-(6-((6-acetyl-8-cyclopentyl-5-methyl-7-oxo-7,8-dihydropyrido[2,3-d]pyrimidin-2-yl)amino)pyridin-3-yl)piperazin-1-yl)acetamido)spiro[3.3]heptan-2-yl)amino)-N-(1-cyclopropyl-5-methyl-1H-pyrazol-3-yl)-6-(methylamino)nicotinamide] | > 100 |
| CC(=O)c1c(C)c2cnc(Nc3ccc(N4CCN(CC(=O)NC5CC6(C5)CC(Oc5nc(NC(C)C)ccc5C(=O)Nc5cn(C)c(C7CC7)n5)C6)CC4)cn3)nc2n(C2CCCC2)c1=O (stereo not drawn) [CPD-317, 2-((6-(2-(4-(6-((6-acetyl-8-cyclopentyl-5-methyl-7-oxo-7,8-dihydropyrido[2,3-d]pyrimidin-2-yl)amino)pyridin-3-yl)piperazin-1-yl)acetamido)spiro[3.3]heptan-2-yl)oxy)-N-(2-cyclopropyl-1-methyl-1H-imidazol-4-yl)-6-(isopropylamino)nicotinamide] | > 100 |
| CC(=O)c1c(C)c2cnc(Nc3ccc(N4CCN(CC(=O)NC5CC6(C5)CC(Nc5nc(CC(C)C)ccc5C(=O)Nc5cn(C)c(C7CC7)n5)C6)CC4)cn3)nc2n(C2CCCC2)c1=O (stereo not drawn) [CPD-318, 2-((6-(2-(4-(6-((6-acetyl-8-cyclopentyl-5-methyl-7-oxo-7,8-dihydropyrido[2,3-d]pyrimidin-2-yl)amino)pyridin-3-yl)piperazin-1-yl)acetamido)spiro[3.3]heptan-2-yl)amino)-N-(2-cyclopropyl-1-methyl-1H-imidazol-4-yl)-6-isobutylnicotinamide] | > 100 |
| CNc1ccc(C(=O)Nc2ccc(N(C)C)nn2)c(NC2CC(N3CCC(CN4CCN(c5ccc(Nc6ncc7c(C)c(C(C)=O)c(=O)n(C8CCCC8)c7n6)nc5)CC4)C3)C2)n1 (stereo not drawn) [CPD-319, 2-((3-(3-((4-(6-((6-acetyl-8-cyclopentyl-5-methyl-7-oxo-7,8-dihydropyrido[2,3-d]pyrimidin-2-yl)amino)pyridin-3-yl)piperazin-1-yl)methyl)pyrrolidin-1-yl)cyclobutyl)amino)-N-(6-(dimethylamino)pyridazin-3-yl)-6-(methylamino)nicotinamide] | > 100 |
| CNc1ccc(C(=O)Nc2cn(C)c(C3CC3)n2)c(NC2CC3(C2)CN(C(=O)C2CC24CCN(c2ccc(Nc5ncc6c(C)c(C(C)=O)c(=O)n(C7CCCC7)c6n5)nc2)CC4)C3)n1 (stereo not drawn) [CPD-320, 2-((2-(6-(6-((6-acetyl-8-cyclopentyl-5-methyl-7-oxo-7,8-dihydropyrido[2,3-d]pyrimidin-2-yl)amino)pyridin-3-yl)-6-azaspiro[2.5]octane-1-carbonyl)-2-azaspiro[3.3]heptan-6-yl)amino)-N-(2-cyclopropyl-1-methyl-1H-imidazol-4-yl)-6-(methylamino)nicotinamide] | > 100 |
| CNc1ccc(C(=O)Nc2cn(C)c(C3CC3)n2)c(NC2CC3(C2)CN(C(=O)C2CC4(CCN(c5ccc(Nc6ncc7c(C)c(C(C)=O)c(=O)n(C8CCCC8)c7n6)nc5)CC4)C2)C3)n1 (stereo not drawn) [CPD-321, 2-((2-(7-(6-((6-acetyl-8-cyclopentyl-5-methyl-7-oxo-7,8-dihydropyrido[2,3-d]pyrimidin-2-yl)amino)pyridin-3-yl)-7-azaspiro[3.5]nonane-2-carbonyl)-2-azaspiro[3.3]heptan-6-yl)amino)-N-(2-cyclopropyl-1-methyl-1H-imidazol-4-yl)-6-(methylamino)nicotinamide] | > 100 |
| CNc1ccc(C(=O)Nc2ccc(N(C)C)nn2)c(NC2CC3(C2)CN(C(=O)C2CC4(CCN(c5ccc(Nc6ncc7c(C)c(C(C)=O)c(=O)n(C8CCCC8)c7n6)nc5)CC4)C2)C3)n1 (stereo not drawn) [CPD-325, 2-((2-(7-(6-((6-acetyl-8-cyclopentyl-5-methyl-7-oxo-7,8-dihydropyrido[2,3-d]pyrimidin-2-yl)amino)pyridin-3-yl)-7-azaspiro[3.5]nonane-2-carbonyl)-2-azaspiro[3.3]heptan-6-yl)amino)-N-(6-(dimethylamino)pyridazin-3-yl)-6-(methylamino)nicotinamide] | > 100 |
| CC(=O)c1c(C)c2cnc(Nc3ccc(N4CCN(C(C)C(=O)NC5CC(Nc6nc(NC(C)C)ccc6C(=O)Nc6cn(C)c(C7CC7)n6)C5)CC4)cn3)nc2n(C2CCCC2)c1=O (stereo not drawn) [CPD-327, 2-((3-(2-(4-(6-((6-acetyl-8-cyclopentyl-5-methyl-7-oxo-7,8-dihydropyrido[2,3-d]pyrimidin-2-yl)amino)pyridin-3-yl)piperazin-1-yl)propanamido)cyclobutyl)amino)-N-(2-cyclopropyl-1-methyl-1H-imidazol-4-yl)-6-(isopropylamino)nicotinamide] | > 100 |
| CNc1ccc(C(=O)Nc2ccc(N(C)C)nn2)c(NC2CCN(C(=O)C3CC4(CCN(c5ccc(Nc6ncc7c(C)c(C(C)=O)c(=O)n(C8CCCC8)c7n6)nc5)CC4)C3)CC2)n1 [CPD-329, 2-((1-(7-(6-((6-acetyl-8-cyclopentyl-5-methyl-7-oxo-7,8-dihydropyrido[2,3-d]pyrimidin-2-yl)amino)pyridin-3-yl)-7-azaspiro[3.5]nonane-2-carbonyl)piperidin-4-yl)amino)-N-(6-(dimethylamino)pyridazin-3-yl)-6-(methylamino)nicotinamide] | > 100 |
| CNc1ccc(C(=O)Nc2cn(C)c(C(C)O)n2)c(NC2CC3(CC(NC(=O)CN4CCN(c5ccc(Nc6ncc7c(C)c(C(C)=O)c(=O)n(C8CCCC8)c7n6)nc5)CC4)C3)C2)n1 (stereo not drawn) [CPD-330, 2-((6-(2-(4-(6-((6-acetyl-8-cyclopentyl-5-methyl-7-oxo-7,8-dihydropyrido[2,3-d]pyrimidin-2-yl)amino)pyridin-3-yl)piperazin-1-yl)acetamido)spiro[3.3]heptan-2-yl)amino)-N-(2-(1-hydroxyethyl)-1-methyl-1H-imidazol-4-yl)-6-(methylamino)nicotinamide] | > 100 |
| CNc1ccc(C(=O)Nc2ccc(N(C)C)nn2)c(NC2CC(C(=O)N3CC4(CCN(c5ccc(Nc6ncc7c(C)c(C(C)=O)c(=O)n(C8CCCC8)c7n6)nc5)CC4)C3)C2)n1 (stereo not drawn) [CPD-331, 2-((3-(7-(6-((6-acetyl-8-cyclopentyl-5-methyl-7-oxo-7,8-dihydropyrido[2,3-d]pyrimidin-2-yl)amino)pyridin-3-yl)-2,7-diazaspiro[3.5]nonane-2-carbonyl)cyclobutyl)amino)-N-(6-(dimethylamino)pyridazin-3-yl)-6-(methylamino)nicotinamide] | > 100 |
| CNc1ccc(C(=O)Nc2ccc(N(C)C)nn2)c(NC2CC(C(=O)N3CC(N4CCN(c5ccc(Nc6ncc7c(C)c(C(C)=O)c(=O)n(C8CCCC8)c7n6)nc5)CC4)C3)C2)n1 (stereo not drawn) [CPD-332, 2-((3-(3-(4-(6-((6-acetyl-8-cyclopentyl-5-methyl-7-oxo-7,8-dihydropyrido[2,3-d]pyrimidin-2-yl)amino)pyridin-3-yl)piperazin-1-yl)azetidine-1-carbonyl)cyclobutyl)amino)-N-(6-(dimethylamino)pyridazin-3-yl)-6-(methylamino)nicotinamide] | > 100 |

Same assay, conditions: MCF7 cells, 3-6 days, 10-point serial dilution; read-out: GI IC50 in MCF-7

| SMILES | IC50 [nM] |
| --- | --- |
| CNc1ccc(C(=O)Nc2ccc(N(C)C)nn2)c(NC2CC(C(=O)N3CCC(N4CCN(c5ccc(Nc6ncc7c(C)c(C(C)=O)c(=O)n(C8CCCC8)c7n6)nc5)CC4)CC3)C2)n1 (stereo not drawn) [CPD-334] | > 100 |
